Measured values: patent US20220364056A1, “SHORT-CHAIN FATTY ACID PENTANOATE AS ENHANCER FOR CELLULAR THERAPY AND ANTI-TUMOR THERAPY” (PHILIPPS-UNIVERSITÄT MARBURG, priority 2019, published 2022)

Experiments:
human CAR T cells = test: human ROR1-specific CAR T cells pretreated, then co-cultured with ROR1-expressing K562 cells; type: cell-based
Source text: We next investigated the impact of SCFAs on human CD8^+ T lymphocytes and CAR T cells.
(A) CD8^+ T cells isolated from peripheral blood of healthy donors were differentiated into CTLs in presence or absence of indicated HDACi. Representative contour plots and dot plots indicate the frequency of TNF-α+ and IFN-γ^+ cells. Data points in the graphs represent individual donors (n=4, performed in 4 independent experiments) (B-G) Phenotyping of pentanoate-treated ROR1-specific CD8^+ CAR T cells (CARROR1 T cells). (B) Experimental setup for the functional analysis is shown. (C) The cytokine secretion (IFN-γ and TNF-α) was analysed in supernatants of pentanoate-treated CARROR1 T cells by ELISA. (D) The surface expression of CD25 was measured by flow cytometry. (E) The secretion of IL-2 was detected in supernatants of CARROR1 T cells by ELISA. (F) Proliferation of CARROR1 T cells was determined by CFSE labelling. CARROR1 T cells pre-treated with pentanoate were stained with CFSE and subsequently co-cultured with […] cells in the absence of pentanoate. CD8^+ T cells without the CAR construct were used as mock control cells. (G) The cytolytic activity of CARROR1 T cells was examined by analysis of specific lysis following encounter with luciferase-expressing […] cells. The percentage of lysed target cells was determined in 1 hour intervals (effector-to-target cell (E:T) ratio=2.5:1). Data points shown in the graphs (C-G) represent CARROR1 T cells derived from three different donors. Following pentanoate pre-treatment, the stimulation was mediated by co-culture of CD8^+ CARROR1 T cells with ROR1-expressing K652 ([…]) cells in the absence of pentanoate.

CTLs = test: extracellular acidification rate (ECAR) of CTLs; type: cell-based, murine; settings: 2.5 mM pentanoate, three days
Method: (§1) (A and B) CTLs were cultured in medium containing 1.0% FCS and treated with pentanoate (2.5 mM) for three days. Representative histogram plots and bar graphs indicate the phoshorylated levels of mTOR (A) and S6 ribosomal protein (B), respectively (n=3 pooled from three independent experiments). (C and D) Human CTLs were cultured in medium containing 1.0% serum and treated with indicated HDACi for three days. Representative histogram plots and bar graphs indicate the phoshorylated levels of mTOR (C) and S6 ribosomal protein (D), respectively (data points represent four individual healthy donors) (E) Measurement of extracellular acidification rate (ECAR) for in vitro generated murine CTLs cultured with or without 2.5 mM pentanoate for three days. ECAR was measured under basal conditions and in response to glucose (10 mM), oligomycin (2 μM), and 2-deoxy-glucose (2-DG, 100 mM). One of three independent experiments is shown.

mTOR = test: phosphorylation of mTOR and S6 in human CTLs; type: cell-based; settings: three days
Method: as §1

B16OVA melanoma cells = test: adoptive transfer of pretreated OT-I CTLs into mice bearing s.c. B16OVA tumors; type: in vivo
[1] = system: promoter region of Ifnγ, Tbx21 and Eomes; test: pan-H4Ac ChIP at CTL-characteristic loci; type: cell-based, mice; settings: 24 hours of treatment
Method: (A) Experimental design for the treatment of CTLs with the water-soluble fraction of intestinal content derived from SPF or GF mice. (B and C) Frequencies of IFN-γ- and TNF-α-producing CTLs treated with the extract from luminal content derived from indicated organs. Representative results of two experiments are shown (n=3). (D) ELISA was performed to measure the secretion of TNF-α by CLTs treated as shown in (A). (E) Quantitative measurement of total SCFA amounts in fecal samples of SPF and GF mice (n=5). (F and G) The percentage of IFN-γ^+ TNF-α^+ CTLs treated with the indicated SCFAs for three days (n=3, one of three independent experiments is shown). (H) The secretion of TNF-α from CTLs treated with SCFAs was determined by ELISA (n=3, one of two independent experiments is shown). (I) The fluorogenic HDAC assay was applied to measure the HDAC inhibitory activity of SCFAs on CTLs. The value for unstimulated CTLs was arbitrarily set to 1.0. Four independent experiments were performed. (J and K) Representative contour plots (J) and bar graphs (K) showing the frequency of IFN-γ+ and TNF-α+ cells after pentanoate (2 mM) or VPA (0.5 mM) administration. Three similar experiments were performed. (L and M) The frequency of Eomes- and T-bet-expressing CTLs treated with pentanoate (2 mM) or VPA (0.5 mM) for three days was analyzed by flow cytometry (n=4). […]

CCCCC(=O)O [pentanoate]
proliferation of CAR T cells (human CAR T cells; CFSE labelling, vs control CAR T cells): proliferated stronger
expression of CD25 (human CAR T cells; pretreated 4 days): upregulated
production of IFN-γ and TNF-α (human CAR T cells; pretreated 4 days, ELISA): elevated the production
secretion of IL-2 (human CAR T cells; pretreated 4 days, ELISA): upregulated
cytolytic activity (human CAR T cells; specific lysis, E:T ratio 2.5:1): superior cytolytic activity
extracellular acidification rate (ECAR) (CTLs): increased
phosphorylation level of S6 ribosomal protein (mTOR): elevated the phosphorylation levels
phosphorylation level of mTOR (mTOR): elevated the phosphorylation levels
tumor volume and weight (B16OVA melanoma cells; OT-I CTLs pretreated three days with pentanoate, transferred day 5 after tumor injection): decreased tumor volume and weight
number of transferred cells expressing TNF-α and IFN-γ in tumors, draining LNs and spleen (B16OVA melanoma cells; day 10 after adoptive transfer, vs control OT-I CTLs): higher number
H4 acetylation at the promoter region of Ifnγ, Tbx21 and Eomes [1]: enhance H4 acetylation
